Experimental data: patent publication US9809587B2, “Pesticidally active heterocyclic derivatives with sulphur containing substituents” (Syngenta Participations AG, priority 2014, dated 2017)

Experiments:
Assay type in all cases: in vivo
[1] = system: Thrips tabaci (Onion Thrips); test: Thrips tabaci (onion thrips), sprayed sunflower leaf discs; conditions: foliar, 144 h, application rate of 200 ppm, mixed ages on sunflower leaf discs, 6 days after infestation
Protocol: Example B10: Thrips tabaci (Onion Thrips)
(§1) Sunflower leaf discs were placed on agar in 24-well microtiter plates and sprayed with aqueous test solutions prepared from 10′000 ppm DMSO stock solutions. After drying the leaf discs were infested with a thrips population of mixed ages. The samples were assessed for mortality 6 days after infestation.

[2] = system: Spodoptera littoralis (Egyqptian Cotton Leaf Worm); test: Spodoptera littoralis (Egyptian cotton leaf worm), sprayed cotton leaf discs; conditions: foliar, 72 h, application rate of 200 ppm, L1 larvae on cotton leaf discs, 3 days after infestation
Method in brief: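 Cotton leaf discs on agar were sprayed with aqueous dilutions made from 10′000 ppm DMSO stocks, then infested after drying with five L1 larvae. Mortality, anti-feedant effect and growth inhibition were scored against untreated discs 3 days after infestation. Control means at least one of these exceeds the untreated sample.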

[3] = system: Myzus persicae (Green Peach Aphid); test: Myzus persicae (green peach aphid), sprayed sunflower leaf discs; conditions: foliar, 144 h, application rate of 200 ppm, mixed ages on sunflower leaf discs, 6 days after infestation
Protocol: Example B4: Myzus persicae (Green Peach Aphid)
Sunflower leaf discs were placed on agar in a 24-well microtiter plate and sprayed with aqueous test solutions prepared from 10′000 ppm DMSO stock solutions. After drying, the leaf discs were infested with an aphid population of mixed ages. The samples were assessed for mortality 6 days after infestation.

[4] = system: Euschistus heros (Neotropical Brown Stink Bug); test: Euschistus heros (neotropical brown stink bug), sprayed soybean leaf; conditions: 120 h, application rate of 200 ppm, N-2 nymphs on soybean leaf, 5 days after infestation
Protocol: Example B3: Euschistus heros (Neotropical Brown Stink Bug)
Soybean leaf on agar in 24-well microtiter plates were sprayed with aqueous test solutions prepared from 10′000 ppm DMSO stock solutions. After drying the leaf were infested with N-2 nymphs. The samples were assessed for mortality in comparison to untreated samples 5 days after infestation.

[5] = system: Plutella xylostella (Diamond Back Moth); test: Plutella xylostella (diamond back moth), treated artificial diet; conditions: 120 h, application rate of 200 ppm, L2 larvae on artificial diet, 5 days after infestation, read-out: effect in at least one of the two categories (mortality or growth inhibition)
Method in brief: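 Artificial diet treated with aqueous dilutions of DMSO stocks (10′000 ppm stock), dried, then infested with 10-15 L2 larvae per well. Mortality and growth inhibition assessed versus untreated controls 5 days after infestation.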

[6] = system: Tetranychus urticae (Two-Spotted Spider Mite); test: Tetranychus urticae (two-spotted spider mite), sprayed bean leaf discs; conditions: foliar, 192 h, application rate of 200 ppm, mixed population (mobile stages) on bean leaf discs, 8 days after infestation
Protocol: Example B9: Tetranychus urticae (Two-Spotted Spider Mite)
as §1, with “Bean” for “Sunflower”, “discs” for “discs were placed”, “were” for “and”, “mite” for “thrips”, “on mixed population (mobile stages) 8” for “6”

[7] = system: Aedes aegypti (Yellow Fever Mosquito); test: Activity against Aedes aegypti (yellow fever mosquito), dried deposits in tissue culture plates; conditions: application rate of 200 ppm in ethanol, adult females, after 48 h
Protocol: Example B12: Activity Against Aedes aegypti (Yellow Fever Mosquito)
Test solutions, at an application rate of 200 ppm in ethanol, were applied to 12-well tissue culture plates. Once the deposits were dry, five, two to five days old adult female Aedes aegypti were added to each well, and sustained with a 10% sucrose solution in a cotton wool plug. Assessment of knockdown was made one hour after introduction, and mortality was assessed at 24 and 48 hours after introduction.
The following compounds gave at least 80% control of Aedes aegypti after 48 h: […]

[8] = system: Frankliniella occidentalis (Western Flower Thrips); test: Frankliniella occidentalis (western flower thrips), sprayed sunflower leaf discs; conditions: foliar, 168 h, application rate of 200 ppm, mixed ages on sunflower leaf discs, 7 days after infestation
Protocol: Example B11: Frankliniella occidentalis (Western Flower Thrips)
as §1, with “[…]” for “10′000 ppm”, “Frankliniella” for “thrips”, “7” for “6”

[9] = system: Spodoptera littoralis (Egyqptian Cotton Leaf Worm); test: Spodoptera littoralis (Egyptian cotton leaf worm), compound in agar taken up by lettuce roots; conditions: 144 h, test rate of 12.5 ppm, uptake by lettuce roots from agar, 6 days after infestation, read-out: effect in at least one of the three categories (mortality, anti-feedancy, or growth inhibition)
Method in brief: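 Compound mixed into agar from a 10′000 ppm DMSO stock and taken up over 7 days by lettuce roots; cut leaves then infested with Spodoptera eggs. Mortality, anti-feedant effect and growth inhibition scored against untreated samples 6 days after infestation.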

[10] = system: Diabrotica balteata (Corn Root Worm); test: Diabrotica balteata (corn root worm), sprayed maize sprouts; conditions: 96 h, application rate of 200 ppm, L2 larvae on maize sprouts, 4 days after infestation
Protocol: Example B2: Diabrotica balteata (Corn Root Worm)
Maize sprouts, placed on an agar layer in 24-well microtiter plates were treated with aqueous test solutions prepared from 10′000 ppm DMSO stock solutions by spraying. After drying, the plates were infested with L2 larvae (6 to 10 per well). The samples were assessed for mortality and growth inhibition in comparison to untreated samples 4 days after infestation.

[11] = system: Bemisia tabaci (Cotton White Fly); test: Bemisia tabaci (cotton white fly), sprayed cotton leaf discs; conditions: foliar, 144 h, application rate of 200 ppm, adult white flies on cotton leaf discs, 6 days after incubation
Protocol: Example B1: Bemisia tabaci (Cotton White Fly)
Cotton leaf discs were placed on agar in 24-well microtiter plates and sprayed with aqueous test solutions prepared from 10′000 ppm DMSO stock solutions. After drying the leaf discs were infested with adult white flies. The samples were checked for mortality 6 days after incubation.

[12] = system: Myzus persicae (Green Peach Aphid); test: Myzus persicae (green peach aphid), roots of pea seedlings in test solution; conditions: 144 h, test rate of 24 ppm, roots of infested pea seedlings in test solution, 6 days
Protocol: Example B5: Myzus persicae (Green Peach Aphid)
Roots of pea seedlings infested with an aphid population of mixed ages were placed directly in the aqueous test solutions prepared from 10′000 DMSO stock solutions. The samples were assessed for mortality 6 days after placing seedlings in test solutions.

CCS(=O)(=O)c1cc(-c2cc(C(F)(F)F)ccn2)cnc1-c1nc2cc(C(F)(F)F)ncc2n1C [Compound P21]
≥ 80%: mortality at 200 ppm [1] | percent control (mortality, anti-feedant effect or growth inhibition) at 200 ppm [2] | mortality at 200 ppm [3] | mortality at 200 ppm [4] | percent effect (mortality or growth inhibition) at 200 ppm [5] | mortality at 200 ppm [6] | pest or weed control at 200 ppm [7] | mortality at 200 ppm [8] | percent control (mortality, anti-feedancy or growth inhibition) at 12.5 ppm [9] | mortality at 200 ppm [10] | mortality at 200 ppm [11]

CCS(=O)(=O)c1cc(-c2ccoc2)cnc1-c1nc2cc(C(F)(F)F)ncc2n1C [Compound P71]
≥ 80%: mortality at 200 ppm [3] | mortality at 200 ppm [4] | percent effect (mortality or growth inhibition) at 200 ppm [5] | mortality at 200 ppm [6] | percent control (mortality, anti-feedancy or growth inhibition) at 12.5 ppm [9] | mortality at 200 ppm [10]

CCS(=O)(=O)c1cc(-c2ncc(F)cc2F)cnc1-c1nc2cc(C(F)(F)F)ncc2n1C [Compound P35]
≥ 80%: mortality at 24 ppm [12] | percent control (mortality, anti-feedant effect or growth inhibition) at 200 ppm [2] | mortality at 200 ppm [3] | percent effect (mortality or growth inhibition) at 200 ppm [5] | mortality at 200 ppm [6] | mortality at 200 ppm [8] | percent control (mortality, anti-feedancy or growth inhibition) at 12.5 ppm [9] | mortality at 200 ppm [10] | mortality at 200 ppm [11]

CCS(=O)(=O)c1cc(-n2cnc(C(F)(F)F)n2)cnc1-c1nc2cc(C(F)(F)F)ncc2n1C [Compound P110]
≥ 80%: mortality at 200 ppm [1] | mortality at 24 ppm [12] | percent control (mortality, anti-feedant effect or growth inhibition) at 200 ppm [2] | mortality at 200 ppm [3] | mortality at 200 ppm [4] | percent effect (mortality or growth inhibition) at 200 ppm [5] | mortality at 200 ppm [6] | pest or weed control at 200 ppm [7] | mortality at 200 ppm [8] | mortality at 200 ppm [10]

CCS(=O)(=O)c1cc(-c2cccc(C#N)n2)cnc1-c1nc2cc(C(F)(F)F)ncc2n1C [Compound P64]
≥ 80%: percent control (mortality, anti-feedant effect or growth inhibition) at 200 ppm [2] | mortality at 200 ppm [3] | mortality at 200 ppm [4] | percent effect (mortality or growth inhibition) at 200 ppm [5] | mortality at 200 ppm [6] | percent control (mortality, anti-feedancy or growth inhibition) at 12.5 ppm [9] | mortality at 200 ppm [10] | mortality at 200 ppm [11]

CCS(=O)(=O)c1cc(-c2ncc(C(F)(F)F)cn2)cnc1-c1nc2cc(C(F)(F)F)ncc2n1C [Compound P25]
≥ 80%: mortality at 200 ppm [1] | percent control (mortality, anti-feedant effect or growth inhibition) at 200 ppm [2] | mortality at 200 ppm [3] | mortality at 200 ppm [4] | percent effect (mortality or growth inhibition) at 200 ppm [5] | mortality at 200 ppm [6] | pest or weed control at 200 ppm [7] | mortality at 200 ppm [8] | percent control (mortality, anti-feedancy or growth inhibition) at 12.5 ppm [9] | mortality at 200 ppm [10] | mortality at 200 ppm [11]

CCS(=O)(=O)c1cc(-c2ncccn2)cnc1-c1nc2cc(C(F)(F)F)ncc2n1C [Compound P27]
≥ 80%: mortality at 24 ppm [12] | percent control (mortality, anti-feedant effect or growth inhibition) at 200 ppm [2] | mortality at 200 ppm [3] | mortality at 200 ppm [4] | percent effect (mortality or growth inhibition) at 200 ppm [5] | mortality at 200 ppm [6] | mortality at 200 ppm [8] | percent control (mortality, anti-feedancy or growth inhibition) at 12.5 ppm [9] | mortality at 200 ppm [10] | mortality at 200 ppm [11]

CCS(=O)(=O)c1cc(-n2cc(C#N)cn2)cnc1-c1nc2cc(C(F)(F)F)ncc2n1C [Compound P94]
≥ 80%: mortality at 200 ppm [1] | mortality at 24 ppm [12] | percent control (mortality, anti-feedant effect or growth inhibition) at 200 ppm [2] | mortality at 200 ppm [3] | mortality at 200 ppm [4] | percent effect (mortality or growth inhibition) at 200 ppm [5] | pest or weed control at 200 ppm [7] | mortality at 200 ppm [8] | mortality at 200 ppm [10] | mortality at 200 ppm [11]
